Source: patent US11724980B2, “Quinones having high capacity retention for use as electrolytes in aqueous redox flow batteries” (President and Fellows of Harvard College, priority 2018, dated 2023)

Assays:
[1] = Unbalanced compositionally-symmetric cell cycling
Protocol: As a direct probe of the effect of O-alkylation of anthraquinone on its chemical stability, 2,6-DBEAQ was cycled potentiostatically in a volumetrically unbalanced compositionally-symmetric cell configuration.
Potentiostatic symmetric cell cycling was performed according to a reported procedure^8 in order to assess the temporal chemical stability of DBEAQ, independent of any variations in apparent capacity as a result of changes to membrane resistance, and in a configuration where there is negligible water or reactant crossover due to the same DBEAQ concentration being used in both electrolytes. […] 5 mL of the resulting electrolyte was used as the capacity-limiting side of a volumetrically unbalanced compositionally-symmetric cell, while the remaining 10 mL was used as the non-capacity-limiting side, i.e., with twice the nominal capacity of the capacity-limiting side. […].
The cycling stability of the DPPEAQ electrolyte was also studied by a previously published symmetric cell method.^24 Although the oxidized form of DPPEAQ is readily soluble at pH 9, proton-coupled electron transfer raises the pH of the electrolyte when it is reduced. Such pH fluctuations can produce misleading results in symmetric cell testing unless the starting pH is above the cutoff point for proton-coupled electron transfer.

[2] = Full cell cycling against potassium ferro/ferricyanide posolyte; settings: from NMR and CV detection limits, full cell cycled 11 days
Protocol: Full cell cycling (i.e. with a ferro/ferricyanide-based posolyte) was performed with the same flow cell hardware but with a FUMASEP® E-620(K) membrane due to its high conductivity and low permeability of DBEAQ and ferricyanide compared to other membranes. For studies at pH 14, the posolyte volume was 30 mL, and its composition, when assembled, was 0.20 M potassium ferrocyanide, 0.08 M potassium ferricyanide, and 1 M KOH. The negolyte was prepared by dissolving 0.1 M 2,6-DBEAQ in its oxidized form in 1.2 M KOH solution, resulting in 0.1 M 2,6-DBEAQ, 1.2 M K+, and 1 M OH^− electrolyte solution. For studies at pH 12, both electrolytes comprised 10 mM OH^−; the pH was checked both with a pH meter and pH paper and adjusted where necessary. For all full cell studies, the negolyte was assembled in the fully discharged state. Galvanostatic cycling was performed at ±0.1 A/cm^2 at room temperature, with voltage limits of 0.6 and 1.4 V. To obtain the polarization curves, the cell was first charged to the desired state of charge and then polarized via linear sweep voltammetry at a rate of 100 mV/s. […] Electrochemical impedance spectroscopy (EIS) was performed at SOCs between 10 and 100% at open-circuit potential with a 10 mV perturbation and with frequency ranging from 1 to 300,000 Hz. […]

Question: With `O=C([O-])CCCOc1ccc2c(c1)C(=O)c1ccc(OCCCC(=O)[O-])cc1C2=O.[K+].[K+]` [2,6-DBEAQ, 4,4′-((9,10-anthraquinone-2,6-diyl)dioxy)dibutyric acid] as the compound, how does the “temporal capacity fade rate” value ([1]; pH 14 (1 M KOH), 0.10 M (2,6-DBEAQ also 0.65 M)) read?
Answer: The value was under 0.01 %/day.

Question: And the “temporal capacity fade rate” value ([1]; pH 14, 0.10 and 0.65 M)?
Answer: The value was under 3.0 %/year.

Question: What about the “upper limit of capacity fade rate caused by decomposition and/or membrane crossover” value [2] of the same compound?
Answer: Its value is at most 0.01 %/day.
